The results in this text go back to patent US20080293801A1, “Solid Amorphous Dispersions of An Mtp Inhibitor For Treatment of Obesity” (PFizer Inc., priority 2003, published 2008).

For orientation: solubility means how much of the substance goes into solution per volume. A low value points to little dissolved substance. As usually defined, the AUC is concentration integrated over time. A lower AUC goes with low exposure.

Structures are written as SMILES. Where “and” joins values, the source holds several entries; their conditions need not be identical. Identical values can stand only once. Marks after values point to notes of the source that are not given here.

Series [1] in a line: Solubility of the lowest energy crystalline form of Drug A in water. Format: physicochemical. The settings on record: lowest energy crystalline form presently known. The procedure: Drug A is an MTP inhibitor intended for the treatment of obesity. The solubility of the lowest energy crystalline form of Drug A presently known in water is less than 0.6 μg/ml. Drug A is nonionizable, and has a cLog P of about 7.8. These characteristics contribute to its water insoluble nature.

Series [2] in a line: In vitro dissolution test in model fasted duodenal solution (MFDS). Format: physicochemical. To be noted: MTC 500 μg/mL; for AUC / Drug A Concentration: MFDS pH 6.5, 37° C. The procedure:
Samples of Example 1 and Control C1 were added to respective microcentrifuge tubes in duplicate. For these tests, a sufficient amount of material was added so that the maximum theoretical concentration of drug (MTC) would have been 500 μg/mL, if all of the drug had dissolved. The tubes were placed in a 37° C. temperature-controlled chamber, and 1.8 mL model fasted duodenal solution, or “MFDS” was added to each respective tube. The MFDS consisted of 1.8 mL PBS containing 0.5 wt % sodium taurocholic acid and 1-palmitoyl-2-oleyl-sn-glycero-3-phosphocholine (NaTC/POPC, with a 4/1 weight ratio) at pH 6.5 and adjusted to 290 mOsm/kg with NaCl:KCl (20.4:1 wt/wt). The samples were quickly mixed using a vortex mixer for about 60 seconds. The samples were centrifuged at 13,000 G at 37° C. for 1 minute. The resulting supernatant solution was then sampled and diluted 1:6 (by volume) with methanol and then analyzed by high-performance liquid chromatography (HPLC) using a Phenomenex Luna, phenyl-hexyl 5 μm column with a mobile phase consisting of 70:30 (vol:vol) acetonitrile: water at a flow rate of 1 ml/min. Drug concentration was measured using UV absorbance at 241 nm. The contents of each respective tube were mixed on the vortex mixer and allowed to stand undisturbed at 37° C. until the next sample was taken. […]
The concentrations of drug obtained in these samples were used to determine the maximum dissolved drug concentration at 90 minutes (MDC90) and the area under the dissolved drug concentration versus time curve (AUC90) during the initial ninety minutes.
For each test, dispersions were added to microcentrifuge tubes in duplicate. For these tests, a sufficient amount of material was added so that the maximum theoretical concentration (MTC) would have been 500 μg/mL, if all of the drug had dissolved. The tubes were placed in a 37° C. temperature-controlled chamber, and 1.8 mL PBS containing 0.5 wt % sodium taurocholic acid and 1-palmitoyl-2-oleyl-sn-glycero-3-phosphocholine (NaTC/POPC, with a 4/1 weight ratio) at pH 6.5 and 290 mOsm/kg (model fasted duodenal solution, “MFDS”) was added to each respective tube. The samples were quickly mixed using a vortex mixer for about 60 seconds. The samples were centrifuged at 13,000 G at 37° C. for 1 minute. The resulting supernatant solution was then sampled and diluted 1:6 (by volume) with methanol and then analyzed by HPLC as described above. The contents of each respective tube were mixed on the vortex mixer and allowed to stand undisturbed at 37° C. until the next sample was taken. […]
The concentrations of drug obtained in these samples were used to determine the MDC90 and the AUC90 during the initial ninety minutes.

In series [1], `CN(Cc1ccccc1)C(=O)[C@@H](NC(=O)c1cc2cc(NC(=O)c3ccccc3-c3ccc(C(F)(F)F)cc3)ccc2n1C)c1ccccc1` [Drug A, (S)—N-{2-[benzyl(methyl)amino]-2-oxo-1-phenylethyl}-1-methyl-5-[4′-(trifluoromethyl)[1,1′-biphenyl]-2-carboxamido]-1H-indole-2-carboxamide] came in with a solubility of less than 0.6 µg/mL.

In the case of `CN(Cc1ccccc1)C(=O)[C@@H](NC(=O)c1cc2cc(NC(=O)c3ccccc3-c3ccc(C(F)(F)F)cc3)ccc2n1C)c1ccccc1` [Example C1], the AUC90 in series [2] (area under dissolved drug concentration vs time curve, initial 90 minutes, MFDS) is 170 µg·min/mL and 200 µg·min/mL. Moreover, the MDC90 in series [2] (maximum dissolved drug concentration, initial 90 minutes, MFDS) was 3.1 µg/mL and 3 µg/mL. The AUC in series [2] (time 0 min) is 0 µg·min/mL; in series [2] (time 4 min), 0 µg·min/mL; in series [2] (time 40 min) it was 93 µg·min/mL and 100 µg·min/mL; in series [2] (time 90 min) it was 170 µg·min/mL and 200 µg·min/mL; in series [2] (time 1200 min) it was 800 µg·min/mL. Also, the “Drug A Concentration” value in series [2] (time 0 min) is 0 µg/mL; in series [2] (time 4 min), 0.0* μg/mL and 0 μg/mL; in series [2] (time 10 min), 2.6 µg/mL and 3 µg/mL; in series [2] (time 20 min), 3.1 µg/mL and 3 µg/mL; in series [2] (time 40 min), 2.6 µg/mL and 3 µg/mL; in series [2] (time 1200 min), 0.8 µg/mL.
